Results taken from patent US11033596B2, “Antioxidant, anti-inflammatory compositions and uses thereof” (Malaysian Palm Oil Board, priority 2017, dated 2021).

How the values were obtained:
RAW macrophages = experiment: Cell-based NO2- scavenging activity (Griess assay, RAW macrophages); settings: for Actual % inhibition of ROS / % inhibition of ROS in comparison to Oil Palm phenolics (± S.E): Table 2; for Actual % inhibition of ROS: each component added at the concentration present in 800 μg/mL OPP; for % inhibition of ROS in comparison to Oil Palm phenolics (± S.E): relative to OPP 800 μg/mL = 100; for Enhancement of anti-inflammatory and anti-oxidative activity of other components / Inhibitory action / nitrite scavenging activity (in words): cell-based Griess assay
Procedure: FIG. 1 is a graphical representation of the biological enhancement of chemical combination of major compounds of Oil Palm phenolics in cell-based NO2^− scavenging activity (Griess assay, RAW macrophages, Mean±SE).
FIG. 1 and Table 2 show the synergistic effect of the composition in cell based nitrite scavenging activity.
For the study, PH435 composition was prepared according to the concentration present in 800 μg/mL of Oil Palm Phenolics.

Red blood cells = experiment: Cell-based antioxidant protection in erythrocytes (CAP-e assay), ROS scavenging; settings: for Effect on reducing ROS / inhibitory action (in words): RBC cells; for Actual % inhibition of ROS: each component added at the concentration present in 10 mg/mL OPP; for % inhibition of ROS in comparison to Oil Palm phenolics (±S.E.): relative to OPP 10 mg/mL = 100
Description: H2O2 Measurement (Cell-Based Antioxidant Protection in Erythrocytes CAP-e Assay)
Red blood cells can be used as a cellular model to quantify reactive oxygen species (ROS). As these cells lose their nuclei at the erythroblast stage, they cannot perform transcription and translation for bringing about genetic and protein level changes.

[1] = Chemical-based ORAC assay
[2] = Nitrite measurement (sodium nitroprusside, SNP assay), chemical system; settings: for Inhibition of the nitrite ion (in words): chemical system
Description: Nitrite Measurement (Sodium Nitroprusside—SNP Assay)
SNP in aqueous solution at physiological pH spontaneously generates nitric oxide, which interacts with oxygen to produce a nitrite ion that can be estimated by using griess reagent.

[3] = test system: Granulocytes/polymorphonuclear (PMN) cells; experiment: H2O2 measurement, cell-based antioxidant protection in granulocytes/polymorphonuclear (PMN) cells assay
Description: H2O2 Measurement (Cell-Based Antioxidant Protection in Granulocytesipolymorphonuclear—PMN Cells Assay)

Compound	Actual % inhibition of ROS (RAW macrophages) [%]	% inhibition of ROS in comparison to Oil Palm phenolics (± S.E) (RAW macrophages)	Actual % inhibition of ROS (Red blood cells)	% inhibition of ROS in comparison to Oil Palm phenolics (±S.E.) (Red blood cells)	other results
O=C(/C=C/c1ccc(O)c(O)c1)O[C@@H]1C=C(C(=O)O)C[C@@H](O)[C@@H]1O [3-Caffeoylshikimic acid, 3-caffeoylshikimic acid]	12.3	18.6(±2.3) %			
O=C(O)C1=CC(=O)[C@@H](O)[C@H](O)C1 [3-dehydroshikimic acid]			9.9%	13.4 (±0.05) %	Enhancement of anti-inflammatory and anti-oxidative activity of other components (RAW macrophages): enhancement effect could be seen; Inhibitory action / nitrite scavenging activity (in words) (RAW macrophages): shows inhibitory action; Effect on reducing ROS / inhibitory action (in words) (Red blood cells): shows inhibitory action; Synergy / enhancement effect of the combination on ROS inhibition (Red blood cells; chemical combination versus mathematical sum): enhancement effect could be seen; Enhancement effect [1]: enhancement effect could be seen; Inhibition of the nitrite ion (in words) [2]: low inhibition; Inhibition of the nitrite ion (in words) ([2]; listed as 3-dehydroshikirnic acid): shows inhibitory action
O=C(/C=C/c1ccc(O)c(O)c1)O[C@@H]1[C@H](O)C=C(C(=O)O)C[C@H]1O [4-Caffeoylshikimic acid, 4-caffeoylshikimic acid]	8.4	12.7(±2.5) %			
O=C(/C=C/c1ccc(O)c(O)c1)O[C@@H]1CC(C(=O)O)=C[C@@H](O)[C@H]1O [5-Caffeoylshikimic acid, 5-caffeoylshikimic acid]	8.8	13.4(±3.7) %			
O=C(O)c1ccc(O)c(O)c1 [Protocatechuic acid]	8.6	13 (±0.7) %			
O=C(O)C1=C[C@@H](O)[C@@H](O)[C@H](O)C1 [Shikimic acid]	3.4	5.2 (±0.7) %	-Not detected-	-Not detected-	Enhancement of anti-inflammatory and anti-oxidative activity of other components (RAW macrophages): able to enhance; Inhibitory action / nitrite scavenging activity (in words) (RAW macrophages): shows inhibitory action; Effect on reducing ROS / inhibitory action (in words) (Red blood cells): shows no activity; Effect on reducing ROS / inhibitory action (in words) (Red blood cells; listed as shikimic acid): does not show any effect; Enhancement of anti-inflammatory and anti-oxidative activity of other components [3]: able to enhance; Inhibitory action (in words) [3]: shows inhibitory action; Enhancement of nitrite inhibition when added with other components ([2]; added along with p-hydroxybenzoic acid): does not show any enhancement; Inhibition of the nitrite ion (in words) [2]: shows inhibitory action; Inhibition of the nitrite ion (in words) ([2]; listed as shikimic acid): low inhibition
O=C(O)c1ccc(O)cc1 [p-hydoxybenzoic acid]	11.4	17.3(±2.8) %	22.5%	30.6 (±0.2) %	
caffeoylshikimic acid			25.9%	35.2(±0.1) %	
